# Measurements taken from paper PMC6271731, “Multitarget Molecular Hybrids of Cinnamic Acids” (Molecules, 2014).
# Assay: TLC screening for free radical scavengers (DPPH)
# Details: plates sprayed with 0.1 mM DPPH ethanolic solution
# Protocol: TLC was used for screening the synthesized hybrids as radical scavengers. The compound solutions in DMSO were spotted onto a silica gel F254 precoated plate and developed using […] and 95% CHCl3 as developing solvents. After development the plates were air-dried and sprayed with 0.1 mM DPPH ethanolic solution for detecting the compounds with rapid scavenging properties.
smiles,measurement,value
"CC(Cc1ccc(O)c(O)c1)C(C)Cc1ccc(O)c(O)c1 (stereo not shown) [NDGA, nordihydroguaiaretic acid]","scavenging of DPPH (visual, TLC)",white spots on a purple background
